# Reference: ChEMBL document CHEMBL4229552, “Optimization of 5-arylidene barbiturates as potent, selective, reversible LSD1 inhibitors for the treatment of acute promyelocytic leukemia” (Bioorg Med Chem, 2018)
# Activity calls are given as the source filed them. The rule behind the calls is not given here.
# What was measured:
# [1] = target: T1, Lysine-specific histone demethylase 1A (Homo sapiens, UniProt O60341)
# [2] = test system: NB-4; assay: Induction of differentiation of human NB4 cells assessed as increase in CD11b positive cells at 0.5 to 5 uM by flow cytometric analysis; assay type: functional, cell-based
# [3] = test system: NB-4; assay: Induction of differentiation of human NB4 cells assessed as increase in CD11b positive cells at 2.5 uM by flow cytometric analysis relative to control; assay type: functional
# [4] = test system: NB-4; assay: Induction of differentiation of human NB4 cells assessed as increase in CD11b positive cells at 5 uM by flow cytometric analysis relative to control; assay type: functional
# [5] = test system: NB-4; assay: Induction of differentiation of human NB4 cells assessed as increase in CD11b positive cells at 1.25 uM by flow cytometric analysis relative to control; assay type: functional, cell-based
# [6] = target: T1, Lysine-specific histone demethylase 1A; remark: listed apart in the source
# [7] = target: T1, Lysine-specific histone demethylase 1A; assay: Binding affinity to fluorescently labeled recombinant human LSD1 expressed in Escherichia coli by MST analysis
# [8] = target: T1, Lysine-specific histone demethylase 1A; settings: 4.1 uM
# [9] = target: T2, Amine oxidase [flavin-containing] A (Homo sapiens, UniProt P21397); assay: Inhibition of recombinant full length N-terminal FLAG-tagged human MAO-A expressed in baculovirus infected Sf9 insect cells using […] as substrate after 1 hr by spectrometric method
# T2 sequence (P21397 whole entry): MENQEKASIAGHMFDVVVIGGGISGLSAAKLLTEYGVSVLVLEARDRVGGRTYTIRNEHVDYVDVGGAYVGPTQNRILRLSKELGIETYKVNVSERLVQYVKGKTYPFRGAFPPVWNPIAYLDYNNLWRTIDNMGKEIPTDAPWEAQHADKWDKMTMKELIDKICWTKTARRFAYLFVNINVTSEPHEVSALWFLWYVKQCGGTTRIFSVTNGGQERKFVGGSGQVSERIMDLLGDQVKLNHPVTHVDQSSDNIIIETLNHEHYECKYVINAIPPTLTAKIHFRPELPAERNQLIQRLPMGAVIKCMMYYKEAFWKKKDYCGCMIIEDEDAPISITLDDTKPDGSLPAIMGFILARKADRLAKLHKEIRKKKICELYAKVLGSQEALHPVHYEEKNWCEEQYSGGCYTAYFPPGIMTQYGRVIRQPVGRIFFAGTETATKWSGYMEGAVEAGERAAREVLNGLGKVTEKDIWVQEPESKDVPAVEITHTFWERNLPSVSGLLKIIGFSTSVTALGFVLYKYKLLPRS
# [10] = target: T3, Amine oxidase [flavin-containing] B (Homo sapiens, UniProt P27338); assay: Inhibition of recombinant full length N-terminal FLAG-tagged human MAO-B expressed in baculovirus infected Sf9 insect cells using […] as substrate after 1 hr by spectrometric method
# T3 sequence (P27338 whole entry): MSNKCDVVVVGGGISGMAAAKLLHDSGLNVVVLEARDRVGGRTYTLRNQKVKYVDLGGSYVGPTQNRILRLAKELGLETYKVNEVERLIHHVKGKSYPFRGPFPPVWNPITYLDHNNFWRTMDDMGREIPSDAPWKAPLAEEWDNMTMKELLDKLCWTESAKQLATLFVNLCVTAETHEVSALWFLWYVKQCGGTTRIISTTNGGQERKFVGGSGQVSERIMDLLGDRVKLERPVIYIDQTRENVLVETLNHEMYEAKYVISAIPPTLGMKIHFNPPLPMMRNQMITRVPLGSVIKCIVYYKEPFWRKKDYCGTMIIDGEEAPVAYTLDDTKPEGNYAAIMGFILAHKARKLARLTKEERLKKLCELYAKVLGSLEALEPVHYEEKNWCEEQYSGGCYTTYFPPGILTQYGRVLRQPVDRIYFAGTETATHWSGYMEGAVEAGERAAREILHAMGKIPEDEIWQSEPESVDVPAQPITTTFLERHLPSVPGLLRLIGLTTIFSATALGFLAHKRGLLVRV
# [11] = species: Homo sapiens
# [12] = species: Homo sapiens; remark: listed apart in the source
# [13] = test system: NB-4; assay: Induction of differentiation of human NB4 cells assessed as increase in CD11b positive cells at 10 uM by flow cytometric analysis relative to control; assay type: functional
# [14] = target: T1, Lysine-specific histone demethylase 1A; assay: Inhibition of LSD1 in HEK293 cells assessed as increase in H3K4me2 levels at 2.5 uM after 24 hrs by Western blot method; assay type: cell-based
# [15] = target: T1, Lysine-specific histone demethylase 1A; assay: Inhibition of LSD1 in HEK293 cells assessed as increase in H3K4me1 levels at 10 uM after 24 hrs by Western blot method; assay type: cell-based
smiles,measurement,setting,value
COc1ccc(C=C2C(=O)NC(=O)N(c3ccc(Br)cc3)C2=O)c(OC)c1OC,IC50,[1],3.6 µM
N#Cc1ccc(N2C(=O)NC(=O)C(=Cc3ccc(O)c(O)c3)C2=O)cc1,Activity,[2],Active
same,IC50,[1],1.2 µM
COc1ccc(N2C(=O)NC(=O)/C(=C\c3ccc(N4CCOCC4)c(F)c3)C2=O)cc1,IC50,[1],18.2 µM
COc1ccc(CC2C(=O)NC(=O)N(c3ccc(Br)cc3)C2=O)cc1OC (configuration not stated),IC50,[1],> 75 µM
Cc1ccc(N2C(=O)NC(=O)C(=Cc3cc4ccccc4[nH]3)C2=O)cc1,Activity,[2],Active
same,IC50,[1],1.1 µM
Cc1ccc(N2C(=O)NC(=O)C(=Cc3cccc(O)c3)C2=O)cc1,IC50,[1],23 µM
Cc1ccccc1N1C(=O)NC(=O)C(=Cc2cc3ccccc3[nH]2)C1=O,IC50,[1],4.4 µM
COc1ccc(N2C(=O)NC(=O)C(=Cc3ccc(O)c(O)c3)C2=O)cc1,IC50,[1],3.1 µM
COc1cc(C=C2C(=O)NC(=O)N(c3ccc(Br)cc3)C2=O)ccc1O,Activity,[3],Active
same,Activity,[4],Active
same,Activity,[5],Active
same,IC50,[1],0.87 µM
CN1CCN(C(=O)CN[C@H]2C[C@@H]2c2ccc(OCc3ccccc3)cc2)CC1,Activity,[2],Active
COc1cc(C=C2C(=O)NC(=O)N(c3ccc(Br)cc3)C2=O)cc(OC)c1O,Activity,[3],Active
same,Activity,[4],Active
same,Activity,[5],Active
same,IC50,[1],0.55 µM
COc1ccc(C=C2C(=O)NC(=O)N(c3ccc(Br)cc3)C2=O)cc1OC,IC50,[1],2.8 µM
O=C1NC(=O)N(c2ccc(Br)cc2)C(=O)C1=Cc1ccc(O)c(O)c1,Ratio IC50,[6],12
same,Activity,[2],Active
same,IC50,[1],0.3 µM
O=C1NC(=S)N(c2ccc(Br)cc2)C(=O)C1=Cc1ccc(O)c(O)c1,Kd,[7],1.1 µM
same,Activity,[8],98.2%
same,IC50,[9],72.5 µM
same,IC50,[10],> 200 µM
same,Ratio IC50,[11],177
same,Ratio IC50,[12],> 487
same,Activity,[3],12.5%
same,Activity,[4],36.6%
same,Activity,[13],89.7%
same,inhibition,[14],Active
same,inhibition,[15],Active
same,IC50,[1],0.41 µM
CCc1ccc(N2C(=O)NC(=O)/C(=C\c3cc4ccccc4[nH]3)C2=O)cc1,IC50,[1],6.42 µM
COc1ccc(C=C2C(=O)NC(=O)N(c3ccc(Br)cc3)C2=O)cc1O,IC50,[1],3.6 µM
